Results: ChEMBL document CHEMBL1201862, “PubChem BioAssay data set” (2004)
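Exposure lasted 48 hours, with cells grown in 96-well plates and compounds tested at five concentrations. Here, GI50 denotes the concentration required for 50% inhibition of growth.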 The source made the active and inactive calls. No stated cut-off is given here; in the data, active = GI50 up to about 1.1 µM and inactive = higher.

Tests used:
Test in all cases: NCI anticancer screen, dose series, 48 h
DLD-1 = system: DLD-1
M19-MEL = system: M19-MEL
RXF 631 = system: RXF 631
HOP-18 = system: HOP-18
DMS-114 = system: DMS-114
XF498 = system: XF498
KM-20L2 = system: KM-20L2
SNB-78 = system: SNB-78
DMS-273 = system: DMS-273

Measured: GI50

Cc1oc2c(C)c3oc(=O)cc(C)c3cc2c1CNC(=O)[C@@H]1OCCOCCOCCOCCOCCOC1C(=O)O (some centres not stated)
inactive: DLD-1 > 100 µM | M19-MEL > 100 µM | RXF 631 36.1 µM | HOP-18 > 100 µM | DMS-114 > 100 µM | XF498 > 10 µM | KM-20L2 > 100 µM | SNB-78 > 100 µM | DMS-273 > 100 µM

c1ccc2c3c([nH]c2c1)[C@H]1C2CCCCN2CN1CC3 (some centres not stated)
inactive: DLD-1 > 100 µM | M19-MEL > 100 µM | RXF 631 > 100 µM | HOP-18 > 100 µM | DMS-114 47.8 µM | XF498 > 100 µM | KM-20L2 > 100 µM | SNB-78 94.4 µM | DMS-273 > 100 µM

c1cc(-c2cn3ccsc3n2)ccn1
inactive: DLD-1 > 100 µM | M19-MEL > 60.5 µM | RXF 631 > 100 µM | HOP-18 > 100 µM | DMS-114 > 66.5 µM | XF498 > 100 µM | KM-20L2 > 31.6 µM | SNB-78 > 100 µM | DMS-273 32.7 µM
